# Data: USRE50528E1, “Compounds and compositions for modulating EGFR mutant kinase activities” (Yuhan Corporation, priority 2014, dated 2025)
# Read-outs that look alike come from different tables or passages of the source.
# Assays:
# H2073 (EGFR wildtype) = assay: Cell viability assay, H2073; assay type: cell-based; details: cellular potency, 72-hour incubation, ATPLite;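 also: NSCLC cell line whose survival relies on wildtype EGFR, treated with serially diluted compound, cytotoxic effect judged from remaining cell viability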
# EGFR mutant L858R = molecular target: T1, EGFR mutant L858R (Homo sapiens, UniProt P00533, L858R); assay: Kinase inhibition assay, EGFR L858R; assay type: biochemical; details: read-out: EGFR mutants L858R;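 also: truncated human EGFR L858R kinase with compound preincubation, ULight-PolyGT peptide phosphorylation read by Europium-antibody Lance detection, IC50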
# T1 construct: truncated human JAK3, EGFR mutants such as del E746-A750; purchased Carna Biosciences
# [1] = system: H1975 (EGFR L858R/T790M mutant); assay: Cell viability assay, H1975; assay type: cell-based; details: for Selectivity over wildtype, Wildtype vs mutant H2073/H1975 (fold): cellular potency ratio; for IC50: cellular potency, 72-hour incubation, ATPLite, read-out: EGFR Mutants H1975;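 as to all read-outs here: NSCLC cells whose survival relies on EGFR L858R/T790M, exposed 72 h to serially diluted compound, ATP-based viability readout, with the H2073 line (wildtype EGFR dependent) as wildtype comparator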
# [2] = system: PC9 (EGFR del E746-A750 mutant); assay: Cell viability assay, PC9; assay type: cell-based; details: for Selectivity over wildtype, Wildtype vs mutant H2073/PC9 (fold): cellular potency ratio; for IC50: cellular potency, 72-hour incubation, ATPLite, read-out: EGFR Mutants PC9;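 as to all read-outs here: NSCLC PC9 cells, whose viability relies on EGFR del E746-A750, exposed to serially diluted compound for 72 h at 37 °C, ATPLite read-out, IC50, H2073 as EGFR wildtype line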
# SYK = molecular target: T2, SYK (Homo sapiens, UniProt P43405); assay: Kinase inhibition assay, SYK; assay type: biochemical; details: biochemical potency;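 also: purified full-length human SYK pre-incubated 30 min with compound, then ULight-TK peptide phosphorylation for 1 h, detected with Europium-labeled antibody in Lance buffer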
# T2 construct: Purified human, full-length SYK, KDR; purchased Carna Biosciences
# EGFR mutant L858R/T790M = molecular target: T3, EGFR mutant L858R/T790M (Homo sapiens, UniProt P00533, L858R/T790M); assay: Kinase inhibition assay, EGFR L858R/T790M; assay type: biochemical; details: read-out: EGFR mutants L858R/T790M;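 also: truncated human enzyme preincubated two hours with compound, then one hour with one millimolar ATP and ULight-PolyGT peptide, Europium-labeled antibody detection, IC50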
# T3 construct: truncated human JAK3, EGFR mutants such as del E746-A750; purchased Carna Biosciences
# EGFR mutant Del19/T790M = molecular target: T4, EGFR mutant Del19/T790M (Homo sapiens, UniProt P00533, DEL746-750/T790M); assay: Kinase inhibition assay, EGFR del E746-A750/T790M; assay type: biochemical; details: read-out: EGFR mutants Del19/T790M
# T4 construct: truncated human JAK3, EGFR mutants such as del E746-A750; purchased Carna Biosciences
# [3] = molecular target: T5, EGFR mutant Del19 (E746-A750) (Homo sapiens, UniProt P00533, DEL746-750); assay: Kinase inhibition assay, EGFR del E746-A750; assay type: biochemical; details: read-out: EGFR mutants Del19 (E746-A750);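 also: truncated human EGFR mutant kinase, two-hour preincubation with compound, then one-hour reaction with ATP and ULight-PolyGT peptide, LANCE Europium-antibody phosphorylation readout, IC50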
# T5 construct: truncated human JAK3, EGFR mutants such as del E746-A750; purchased Carna Biosciences
# EGFR mutant T790M = molecular target: T6, EGFR mutant T790M (Homo sapiens, UniProt P00533, T790M); assay: Kinase inhibition assay, EGFR mutant T790M; details: biochemical potency;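 also: truncated human EGFR mutant enzyme preincubated two hours with compound, then ATP plus ULight-PolyGT peptide for one hour, Europium-labeled antibody LANCE detection, IC50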
# T6 construct: truncated human JAK3, EGFR mutants such as del E746-A750; purchased Carna Biosciences
Compound,IC50 [2],IC50 (SYK),IC50 (EGFR mutant T790M),IC50 (H2073 (EGFR wildtype); NCI-H2073),IC50 (EGFR mutant L858R),"IC50 ([1]; Homo sapiens, NCI-H1975)",IC50 (EGFR mutant L858R/T790M),IC50 (EGFR mutant Del19/T790M),IC50 [3],IC50 (H2073 (EGFR wildtype)),"IC50 (EGFR mutant L858R; biochemical potency, 1 mM ATP)","Selectivity over wildtype, Wildtype vs mutant H2073/H1975 (fold) [1]",IC50 [1],"Selectivity over wildtype, Wildtype vs mutant H2073/PC9 (fold) [2]","IC50 (EGFR mutant L858R/T790M; biochemical potency, 1 mM ATP)","IC50 (EGFR mutant Del19/T790M; biochemical potency, 1 mM ATP)","IC50 ([3]; biochemical potency, 1 mM ATP)"
"4-(3-((dimethylamino)methyl)-4-methyl-1H-pyrrol-1-yl)-N-(3,5-dimethylphenyl)pyrimidin-2-amine [Compound 146, reference compound]",> 1000 nM,20 to 200 nM,> 1000 nM,,,,,,,> 1000 nM,> 1000 nM,<20 fold,> 1000 nM,<20 fold,201 to 1000 nM,201 to 1000 nM,> 1000 nM
"C=CC(=O)Nc1cc(Nc2nccc(-n3cc(CN(C)C)c(C(C)(C)C)n3)n2)c(OC)cc1N1CCOCC1 [Compound 86, N-(5-(4-(3-tert-butyl-4-((dimethylamino)methyl)-1H-pyrazol-1-yl)pyrimidin-2-ylamino)-4-methoxy-2-morpholinophenyl)acrylamide]",< 20 nM,> 1000 nM,20 to 200 nM,201 to 1000 nM,< 20 nM,< 20 nM,< 20 nM,< 20 nM,< 20 nM,,,20-200 fold,,20-200 fold,,,
"C=CC(=O)Nc1cc(Nc2nccc(-n3cc(CN(C)C)c(C(C)C)n3)n2)c(OC)cc1N1CCOCC1 [Compound 93, N-(5-(4-(4-((dimethylamino)methyl)-3-isopropyl-1H-pyrazol-1-yl)pyrimidin-2-ylamino)-4-methoxy-2-morpholinophenyl)acrylamide]",< 20 nM,> 1000 nM,< 20 nM,201 to 1000 nM,< 20 nM,< 20 nM,< 20 nM,< 20 nM,< 20 nM,,,20-200 fold,,20-200 fold,,,
"C=CC(=O)Nc1cc(Nc2nccc(-n3cc(CN(C)C)c(C(C)(C)C)n3)n2)c(OC)cc1N(C)CCOC [Compound 100, N-(5-(4-(3-tert-butyl-4-((dimethylamino)methyl)-1H-pyrazol-1-yl)pyrimidin-2-ylamino)-4-methoxy-2-((2-methoxyethyl)(methyl)amino)phenyl)acrylamide]",20 to 200 nM,> 1000 nM,20 to 200 nM,> 1000 nM,< 20 nM,20 to 200 nM,< 20 nM,< 20 nM,< 20 nM,,,101-200 fold,,101-200 fold,,,
"Cc1cc(C)cc(Nc2nccc(-n3cc(CN4CC(O)C4)c(C)n3)n2)c1 [Compound 147, 1-((1-(2-(3,5-dimethylphenylamino)pyrimidin-4-yl)-3-methyl-1H-pyrazol-4-yl)methyl)azetidin-3-ol, reference compound]",> 1000 nM,20 to 200 nM,> 1000 nM,> 1000 nM,> 1000 nM,> 1000 nM,201 to 1000 nM,> 1000 nM,> 1000 nM,,,<20 fold,,<20 fold,,,
"Cc1cc(Nc2nccc(-n3cc(CN4CC(O)C4)c(C4CC4)n3)n2)cc(C)c1OCCO [Compound 151, 1-((3-cyclopropyl-1-(2-(4-(2-hydroxyethoxy)-3,5-dimethylphenylamino)pyrimidin-4-yl)-1H-pyrazol-4-yl)methyl)azetidin-3-ol, reference compound]",> 1000 nM,201 to 1000 nM,> 1000 nM,> 1000 nM,20 to 200 nM,> 1000 nM,20 to 200 nM,201 to 1000 nM,> 1000 nM,,,<20 fold,,<20 fold,,,

# Second part, led by results:
IC50 [2],IC50 (SYK),IC50 (EGFR mutant T790M),IC50 (H2073 (EGFR wildtype); NCI-H2073),IC50 (EGFR mutant L858R),"IC50 ([1]; Homo sapiens, NCI-H1975)",IC50 (EGFR mutant L858R/T790M),IC50 (EGFR mutant Del19/T790M),IC50 [3],Compound,IC50 (H2073 (EGFR wildtype)),"IC50 (EGFR mutant L858R; biochemical potency, 1 mM ATP)","Selectivity over wildtype, Wildtype vs mutant H2073/H1975 (fold) [1]",IC50 [1],"Selectivity over wildtype, Wildtype vs mutant H2073/PC9 (fold) [2]","IC50 (EGFR mutant L858R/T790M; biochemical potency, 1 mM ATP)","IC50 (EGFR mutant Del19/T790M; biochemical potency, 1 mM ATP)","IC50 ([3]; biochemical potency, 1 mM ATP)"
< 20 nM,> 1000 nM,< 20 nM,20 to 200 nM,< 20 nM,< 20 nM,< 20 nM,< 20 nM,< 20 nM,"C=CC(=O)Nc1cc(Nc2nccc(-n3cc(CN(C)C)c(-c4ccccc4)n3)n2)c(OC)cc1N1CCC1 [Compound 84, N-(2-(azetidin-1-yl)-5-(4-(4-((dimethylamino)methyl)-3-phenyl-1H-pyrazol-1-yl)pyrimidin-2-ylamino)-4-methoxyphenyl)acrylamide]",,,<20 fold,,<20 fold,,,
< 20 nM,> 1000 nM,< 20 nM,> 1000 nM,< 20 nM,< 20 nM,< 20 nM,< 20 nM,< 20 nM,"C=CC(=O)Nc1cc(Nc2nccc(-n3cc(CN(C)CC)c(-c4ccccc4)n3)n2)c(OC)cc1N1CCOCC1 [Compound 92, N-(5-(4-(4-((ethyl(methyl)amino)methyl)-3-phenyl-1H-pyrazol-1-yl)pyrimidin-2-ylamino)-4-methoxy-2-morpholinophenyl)acrylamide]",,,>200 fold,,>200 fold,,,
20 to 200 nM,20 to 200 nM,< 20 nM,> 1000 nM,< 20 nM,20 to 200 nM,< 20 nM,< 20 nM,< 20 nM,"C=CC(=O)Nc1cc(Nc2nccc(-n3cc(CN(C)C)c(C4CC4)n3)n2)c(OC)cc1N(C)CCOC [Compound 106, N-(5-(4-(3-cyclopropyl-4-((dimethylamino)methyl)-1H-pyrazol-1-yl)pyrimidin-2-ylamino)-4-methoxy-2-((2-methoxyethyl)(methyl)amino)phenyl)acrylamide]",,,101-200 fold,,101-200 fold,,,
< 20 nM,20 to 200 nM,< 20 nM,201 to 1000 nM,< 20 nM,< 20 nM,< 20 nM,< 20 nM,< 20 nM,"C=CC(=O)Nc1cc(Nc2nccc(-n3cc(CN4CCC4)c(-c4cccs4)n3)n2)c(OC)cc1N1CCOCC1 [Compound 118, N-(5-(4-(4-(azetidin-1-ylmethyl)-3-(thiophen-2-yl)-1H-pyrazol-1-yl)pyrimidin-2-ylamino)-4-methoxy-2-morpholinophenyl)acrylamide]",,,20-200 fold,,20-200 fold,,,
> 1000 nM,201 to 1000 nM,> 1000 nM,> 1000 nM,> 1000 nM,> 1000 nM,201 to 1000 nM,201 to 1000 nM,> 1000 nM,"Cc1cc(Nc2nccc(-n3cc(CN4CC[C@@H](O)C4)c(C)n3)n2)cc(C)c1OCCN1CCCC1 [Compound 148, (R)-1-((1-(2-(3,5-dimethyl-4-(2-(pyrrolidin-1-yl)ethoxy)phenylamino)pyrimidin-4-yl)-3-methyl-1H-pyrazol-4-yl)methyl)pyrrolidin-3-ol, reference compound]",,,<20 fold,,<20 fold,,,
> 1000 nM,> 1000 nM,> 1000 nM,> 1000 nM,> 1000 nM,> 1000 nM,201 to 1000 nM,> 1000 nM,> 1000 nM,"Cc1cc(Nc2nccc(-n3cc(CN4CC(O)C4)c(C)n3)n2)cc(C)c1OCCO [Compound 149, 1-((1-(2-(4-(2-hydroxyethoxy)-3,5-dimethylphenylamino)pyrimidin-4-yl)-3-methyl-1H-pyrazol-4-yl)methyl)azetidin-3-ol, reference compound]",,,<20 fold,,<20 fold,,,
> 1000 nM,> 1000 nM,,> 1000 nM,> 1000 nM,> 1000 nM,201 to 1000 nM,20 to 200 nM,> 1000 nM,"CC/C=C\CC(=O)Nc1cc(Nc2nccc(-n3cc(CN(C)C)c(-c4ccccc4)n3)n2)c(OC)cc1N1CCOCC1 [Compound 156, (Z)—N-(5-(4-(4-((dimethylamino)methyl)-3-phenyl-1H-pyrazol-1-yl)pyrimidin-2-ylamino)-4-methoxy-2-morpholinophenyl)hex-3-enamide, reference compound]",,,<20 fold,,<20 fold,,,
